From the RepoRT retention time repository come the findings set out here.

This data set in a line: A: acetonitrile + 0.1% formic acid + 10 mM ammonium formate; B: 5% water + 95% acetonitrile + 0.1% formic acid + 10 mM ammonium formate; gradient (min/%B) 0/10 2/10 22/100 27/100 27.1/10. The settings on record: stereoisomer not certain.

As to `O=Cc1ccc(O)cc1` [4-Hydroxybenzaldehyde], the LC retention time amounted to 3.98 min.

`Cc1cccc(Nc2ccccc2C(=O)O)c1C` [Mefenamic acid]: the LC retention time was determined as 0.437 min. `Nc1ncnc2c1ncn2C1OC(COP(=O)(O)OP(=O)(O)O)C(O)C1O` (centres undefined) [Adenosine 5'-diphosphate]: the LC retention time worked out at 9.46 min.

`CC(=O)O[C@H](CC(=O)[O-])C[N+](C)(C)C` [O-Acetyl-L-carnitine]: the LC retention time was determined as 5.88 min. On to `CC(C)C[C@H](N)C(=O)N[C@@H](C)C(=O)O` [L-Leucyl-L-alanine], for which the LC retention time was 5.82 min. Regarding `C[N+](C)(C)CCOP(=O)(O)OP(=O)([O-])OCC1OC(n2ccc(N)nc2=O)C(O)C1O` (centres undefined) [Citicoline], the LC retention time came to 8.51 min.

On to `CC12CCC(=O)C=C1CCC1C2C(O)CC2(C)C1CCC2(O)C(=O)CO` (centres undefined) [Hydrocortisone], for which the LC retention time came to 0.479 min. With `O=C(O)C(=O)Cc1c[nH]c2ccccc12` [Indole-3-pyruvic acid], the LC retention time stood at 0.455 min. As to `N[C@@H](CO)C(=O)O` [L-Serine], the LC retention time is 6.56 min. With `CCCCCC(=O)OCC(COC(=O)CCCCC)OC(=O)CCCCC` [Glycerol Trihexanoate] the figure was 0.406 min; with `CC1(C)SC2C(NC(=O)C(N)c3ccccc3)C(=O)N2C1C(=O)O` (centres undefined) [Ampicillin], 4.86 min. As for `CN1CC(=O)NC1=N` [Creatinine], the LC retention time turned out to be 2.58 min.

Consider `O=C(CO)COP(=O)(O)O` [Dihydroxyacetone phosphate], for which the LC retention time is 6.59 min.

In the case of `Fc1ccc(C2CCNCC2COc2ccc3c(c2)OCO3)cc1` (centres undefined) [Paroxetine], the LC retention time was 1.19 min. `O=P(O)(O)OC(CO)CO` [beta-Glycerophosphoric acid]: the LC retention time came out at 6.56 min. As for `O=C(O)c1ccncc1` [Isonicotinic acid], the LC retention time is 3.05 min. On to `Nc1nc2ncc(CNc3ccc(C(=O)NC(CCC(=O)O)C(=O)O)cc3)nc2c(=O)[nH]1` (centres undefined) [Folic acid], for which the LC retention time came out at 5.87 min. `COc1cc(C2Oc3cc(C4Oc5cc(O)cc(O)c5C(=O)C4O)ccc3OC2CO)ccc1O` (centres undefined) [Silibinin]: the LC retention time came out at 0.474 min. Take `CC(CCC(=O)NCCS(=O)(=O)O)C1CCC2C3CCC4CC(O)CCC4(C)C3CC(O)C12C` (centres undefined) [Taurodeoxycholic acid]: the LC retention time was determined as 2.71 min. As to `NC(N)=NCC(=O)O` [Guanidoacetic acid], the LC retention time was 6.12 min. Consider `CC(C)(C)NCC(O)c1ccc(O)c(CO)c1` (centres undefined) [Salbutamol], for which the LC retention time was 3.16 min. `Nc1ncnc2c1ncn2C1OC(COP(=O)(O)O)C(O)C1O` (centres undefined) [Adenosine-5'-monophosphate]: the LC retention time stood at 6.76 min.

For `CCCCCCC(N)C(=O)O` (centres undefined) [2-Aminooctanoic acid], the LC retention time was 4.11 min. Turning to `O=C1OC2(c3ccccc31)c1cc(I)c(O)c(I)c1Oc1c2cc(I)c(O)c1I` [Erythrosine B], the LC retention time was 0.57 min.

With `N[C@@H](CS(=O)(=O)O)C(=O)O` [L-Cysteic acid], the LC retention time is 6.79 min.

In the case of `CCCCCCCCCCCCOC(=O)c1cc(O)c(O)c(O)c1` [Lauryl gallate], the LC retention time was determined as 0.455 min. Turning to `Cc1cc2nc3c(=O)[nH]c(=O)nc-3n(CC(O)C(O)C(O)CO)c2cc1C` (centres undefined) [Riboflavin], the LC retention time came out at 3.65 min. On to `CSc1ccc2c(c1)N(CCC1CCCCN1C)c1ccccc1S2` (centres undefined) [Thioridazine], for which the LC retention time came to 0.953 min.

Turning to `Cc1ncc(CO)c(C=O)c1O` [Pyridoxal], the LC retention time was determined as 0.981 min.

Turning to `COc1cc(CCN)ccc1O` [3-Methoxytyramine], the LC retention time was found to be 2.92 min. For the compound `CC1CNC(=O)NC1=O` (centres undefined) [5,6-Dihydro Thymine], the LC retention time was determined as 0.621 min. Next, `OCCNCCO` [Diethanolamine]: 5.23 min; `N[C@@H](CCO)C(=O)O` [L-Homoserine]: 6.32 min; `OCCN1CCN(CCCN2c3ccccc3Sc3ccc(Cl)cc32)CC1` [Perphenazine]: 1.55 min. Take `O=C(C=Cc1ccc(O)c(O)c1)OC1CC(O)(C(=O)O)CC(O)C1O` (centres undefined) [Chlorogenic acid]: the LC retention time amounted to 4.76 min. Regarding `NCCCC(N)C(=O)O` (centres undefined) [Ornithine], the LC retention time is 7.71 min.

Consider `CCC=CCC1C(=O)CCC1CC(=O)OC` (mixture of isomers) [Methyl Jasmonate (mixture of isomers)], for which the LC retention time was 0.421 min. As for `Nc1nc2c(ncn2C2CC(O)C(CO)O2)c(=O)[nH]1` (centres undefined) [2'-Deoxyguanosine], the LC retention time is 4.06 min. On to `COC(=O)C1=C(C)NC(C)=C(C(=O)OC)C1c1ccccc1[N+](=O)[O-]` [Nifedipine], for which the LC retention time was 0.418 min. `OCC1OC(OC2C(CO)OC(O)(CO)C2O)C(O)C(O)C1O` (centres undefined) [Lactulose]: the LC retention time was found to be 6.6 min. Next, `COc1cc(OC)cc(OC)c1` [1,3,5-Trimethoxybenzene]: 0.423 min. Consider `Nc1nc2c(ncn2C2OC(COP(=O)(O)O)C(O)C2O)c(=O)[nH]1` (centres undefined) [Guanosine 5'-monophosphate], for which the LC retention time came out at 7.36 min. As to `Cc1cn(C2OC(CO)C(O)C2O)c(=O)[nH]c1=O` (centres undefined) [5-Methyluridine], the LC retention time is 1.78 min. `CC(C)Oc1ccc2c(=O)c(-c3ccccc3)coc2c1` [Ipriflavone]: the LC retention time amounted to 0.767 min. For `Cn1cncc1CC(NC(=O)CCN)C(=O)O` [L-Anserine], the LC retention time was determined as 7.92 min. `O=c1[nH]c(=O)c2cn[nH]c2[nH]1` [Oxipurinol]: the LC retention time was determined as 1.88 min. For the compound `CNCCC(Oc1ccc(C(F)(F)F)cc1)c1ccccc1` (centres undefined) [Fluoxetine], the LC retention time is 0.978 min. As for `CS(=N)(=O)CC[C@H](N)C(=O)O` (stereo partly drawn) [(2S)-2-Amino-4-(S-methylsulfonimidoyl)butanoic acid], the LC retention time was 6.69 min. With `CC(CCC(=O)NCC(=O)O)C1CCC2C3CCC4CC(O)CCC4(C)C3CC(O)C12C` (centres undefined) [Glycodeoxycholic acid] the figure was 2.78 min. On to `NCC(=O)NCC(=O)O` [Glycyl-glycine], for which the LC retention time amounted to 7.02 min. In the case of `CCc1occc(=O)c1O` [2-Ethyl-3-hydroxy-4H-pyran-4-one], the LC retention time is 0.586 min. As for `O=c1[nH]cnc2c1ncn2C1OC(CO)C(O)C1O` (centres undefined) [Inosine], the LC retention time was 3.94 min.

In the case of `CN1CC(=O)N2C(Cc3c([nH]c4ccccc34)C2c2ccc3c(c2)OCO3)C1=O` (centres undefined) [Tadalafil], the LC retention time turned out to be 0.457 min.

As to `CN(C)Cc1c[nH]c2ccccc12` [Gramine], the LC retention time was determined as 1.61 min.

As to `Cn1c[n+](C2OC(CO)C(O)C2O)c2nc(N)nc([O-])c21` (centres undefined) [7-Methylguanosine], the LC retention time amounted to 5.34 min.

`COc1cc(C=CC(=O)CC(=O)C=Cc2ccc(O)c(OC)c2)ccc1O` [Curcumin]: the LC retention time was found to be 0.431 min. With `NC(=O)c1ncn(C2OC(CO)C(O)C2O)c1N` [5-Aminoimidazole-4-carboxamide-1-beta-D-ribofuranoside] the figure was 3.02 min; with `CC(=O)C1(O)CCC2C3CC(C)C4=CC(=O)CCC4(C)C3CCC21C` (centres undefined) [Medroxyprogesterone], 0.429 min; with `Cn1c(=O)[nH]c2ncn(C)c2c1=O` [1,7-dimethylxanthine], 0.655 min.

With `O=c1[nH]cnc2c1ncn2C1CC(O)C(CO)O1` (centres undefined) [Deoxyinosine], the LC retention time was 2.64 min.

`CC(C)OC(=O)C(C)(C)Oc1ccc(C(=O)c2ccc(Cl)cc2)cc1` [Fenofibrate]: the LC retention time was 0.401 min.

Regarding `CC(=O)C1CCC2C3CCC4=CC(=O)CCC4(C)C3CCC12C` (centres undefined) [Progesterone], the LC retention time is 0.425 min. With `NC(=O)NCCCC[C@H](N)C(=O)O` [L-Homocitrulline], the LC retention time amounted to 6.59 min. As to `CC(C)CCCC(C)C1CCC2C3CCC4=CC(=O)CCC4(C)C3CCC12C` (single isomer, unassigned; (+)) [(+)-4-Cholesten-3-one], the LC retention time worked out at 0.407 min.

In the case of `NC(=O)C1=CN(C2OC(COP(=O)(O)OP(=O)(O)OCC3OC(n4cnc5c(N)ncnc54)C(O)C3O)C(O)C2O)C=CC1` (centres undefined) [NADH], the LC retention time stood at 7.5 min. `Nc1nc2c(ncn2CCC(CO)CO)c(=O)[nH]1` [Penciclovir]: the LC retention time was 4.51 min. With `CN1CCCC1c1cccnc1` [L-Nicotine], the LC retention time came to 3.88 min. As to `COc1ccc(CC(=O)O)cc1OC` [3,4-Dimethoxyphenylacetic acid], the LC retention time was determined as 0.554 min. For the compound `NC(CCS)C(=O)O` (racemic) [DL-Homocysteine], the LC retention time worked out at 5.69 min. `NC(N)=NCCCC(=O)O` [4-Guanidinobutyric acid]: the LC retention time was 5.73 min. In the case of `COc1cc(/C=C/C(=O)O)ccc1O` [Ferulic acid], the LC retention time was 0.564 min. Turning to `COc1ccc(-c2coc3cc(O)ccc3c2=O)cc1` [Formononetin], the LC retention time amounted to 0.446 min. `NC(CCSCC(N)C(=O)O)C(=O)O` (centres undefined) [Cystathionine]: the LC retention time turned out to be 8.01 min.

Consider `NC(=O)CCCCC1CCSS1` (racemic) [DL-6,8-Thioctamide], for which the LC retention time amounted to 0.473 min. As to `NCCCCC(=O)O` [5-Aminovaleric acid], the LC retention time came to 5.83 min. With `Nc1nc2c(c(=O)[nH]1)N(C=O)C(CNc1ccc(C(=O)NC(CCC(=O)O)C(=O)O)cc1)CN2` (centres undefined) [Folinic acid] the figure was 5.94 min; with `CN(C)CCOc1ccc(C(=C(CCCl)c2ccccc2)c2ccccc2)cc1` [Toremifene], 0.772 min. On to `CC12C=CC(=O)C=C1CCC1C3CC(O)C(O)(C(=O)CO)C3(C)CC(O)C12F` (centres undefined) [Triamcinolone], for which the LC retention time came to 0.499 min.

As for `CC(=O)Nc1nnc(S(N)(=O)=O)s1` [Acetazolamide], the LC retention time worked out at 0.529 min.
